Data from patent US5108997A, “Cephem compounds” (Fujisawa Pharmaceuticals Co., Ltd., priority 1986, dated 1992).
Converted amounts (≈) assume the structure as drawn.

Tested on: P. vulgaris 49
Assay: In vitro antibacterial activity, two-fold agar-plate dilution method (MIC)
Assay type: cell-based
Details: Proteus vulgaris, HI-agar, 10^6 viable cells per ml, 37° C. for 20 hours, read-out: MIC (minimal inhibitory concentration)
Experimental: Now in order to show the utility of the object compounds [I], the test data on MIC (minimal inhibitory concentration) of representative compounds [I] of this invention are shown in the following.
In vitro antibacterial activity was determined by the two-fold agar-plate dilution method as described below.
One loopful of an overnight culture of each test strain in Trypticase-soy broth (10^6 viable cells per ml) was streaked on heart infusion agar (HI-agar) containing graded concentrations of representative test compound, and the minimal inhibitory concentration (MIC) was expressed in terms of μg/ml after incubation at 37° C. for 20 hours.

## Cn1c(N)cc[n+]1CC1=C(C(=O)[O-])N2C(=O)C(NC(=O)C(=NOC(C)(C)C(=O)O)c3nsc(N)n3)C2SC1 (stereo not drawn) [Compound C, 7β-[2-(5-Amino-1,2,4-thiadiazol-3-yl)-2-(1-carboxyl-1-methylethoxyimino)acetamido]-3-(3-amino-2-methyl-1-pyrazolio)methyl-3-cephem-4-carboxylate(syn isomer)]
  MIC: 0.1 µg/mL (≈ 0.177 µM)

## Cn1c(N)cc[n+]1CC1=C(C(=O)[O-])N2C(=O)C(NC(=O)C(=NOCC(=O)O)c3nsc(N)n3)C2SC1 (stereo not drawn) [Compound A, 7β-[2-(5-Amino-1,2,4-thiadiazol-3-yl)-2-carboxymethoxyiminoacetamido]-3-(3-amino-2-methyl-1-pyrazolio)methyl-3-cephem-4-carboxylate (syn isomer)]
  MIC: 0.2 µg/mL (≈ 0.372 µM)

## Cn1c(NC=O)cc[n+]1CC1=C(C(=O)[O-])N2C(=O)C(NC(=O)C(=NOCC(=O)O)c3nsc(N)n3)C2SC1 (stereo not drawn) [Compound B, 7β-[2-(5-Amino-1,2,4-thiadiazol-3-yl)-2-carboxymethoxyiminoacetamide]-3-(3-formamido-2-methyl-1-pyrazolio)methyl-3-cephem-4-carboxylate (syn isomer)]
  MIC: 0.2 µg/mL (≈ 0.354 µM)
